Experiment [1] has as its target T1, Histidinol dehydrogenase, chloroplastic (Brassica oleracea var. capitata, UniProt P24226).
T1 sequence (P24226 whole entry): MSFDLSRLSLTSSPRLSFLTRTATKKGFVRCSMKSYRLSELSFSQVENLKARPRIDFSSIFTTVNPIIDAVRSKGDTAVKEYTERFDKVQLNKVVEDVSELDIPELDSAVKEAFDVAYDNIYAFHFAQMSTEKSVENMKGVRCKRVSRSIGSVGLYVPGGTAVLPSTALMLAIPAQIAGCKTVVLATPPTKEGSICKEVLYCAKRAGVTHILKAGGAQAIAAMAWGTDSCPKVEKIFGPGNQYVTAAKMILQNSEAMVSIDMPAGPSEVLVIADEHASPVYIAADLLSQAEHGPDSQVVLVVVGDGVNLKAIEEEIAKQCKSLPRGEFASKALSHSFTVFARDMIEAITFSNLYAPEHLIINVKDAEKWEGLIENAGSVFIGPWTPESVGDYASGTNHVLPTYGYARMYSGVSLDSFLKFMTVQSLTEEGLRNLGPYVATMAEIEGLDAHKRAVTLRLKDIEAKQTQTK
Briefly: Inhibition of Brassica oleracea (cabbage) histidinol dehydrogenase pre-incubated for 10 min before substrate histidinol addition by spectrophotometry.

Experiment [2] has as its target T2, Histidinol dehydrogenase (Escherichia coli (strain K12), UniProt P06988).
T2 sequence (P06988 whole entry): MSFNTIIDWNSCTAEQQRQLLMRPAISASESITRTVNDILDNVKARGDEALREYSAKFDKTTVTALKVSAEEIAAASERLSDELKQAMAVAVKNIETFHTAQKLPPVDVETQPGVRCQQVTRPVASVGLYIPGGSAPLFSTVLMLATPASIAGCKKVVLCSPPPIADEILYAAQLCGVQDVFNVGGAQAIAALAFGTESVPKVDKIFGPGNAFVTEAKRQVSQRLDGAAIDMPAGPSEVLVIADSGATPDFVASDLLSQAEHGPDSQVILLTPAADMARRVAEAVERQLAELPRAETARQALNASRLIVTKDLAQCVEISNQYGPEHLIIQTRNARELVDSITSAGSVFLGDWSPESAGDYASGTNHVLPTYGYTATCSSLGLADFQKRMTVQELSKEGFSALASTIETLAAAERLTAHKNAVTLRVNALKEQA
The experiment is described as follows: Inhibition of Escherichia coli histidinol dehydrogenase preincubated for 10 min before substrate histidinol addition by spectrophotometry.

The test system of experiment [3] is Oryza sativa. Briefly: Inhibition of root growth in Oryza sativa (rice) seedlings grown in agar containing basal salts in presence of histidine. In kind it is functional, organism-based.
Experiment [4] concerns Oryza sativa. Briefly: Inhibition of root growth in Oryza sativa (rice) seedlings grown in agar containing basal salts. In kind it is functional, organism-based.
Experiment [5] deals with T3, Histidinol dehydrogenase, chloroplastic (Brassica oleracea var. capitata) (UniProt P24226).
T3 sequence (whole entry): T1 sequence (P24226 whole entry)
The experiment is described as follows: Ratio of histidinol IC50 to compound IC50 for Brassica oleracea (cabbage) histidinol dehydrogenase.

Experiment [6] in a line: Ratio of IC50 for Escherichia coli histidinol dehydrogenase to IC50 for cabbage histidinol dehydrogenase.
For experiment [7], the target named is T2, Histidinol dehydrogenase. Briefly: Binding affinity to Escherichia coli histidinol dehydrogenase.

SMILES strings stand for the structures. Calls of active or inactive are those of the source. The calls are words filed in the database; no cut-off is given here.

Broadly, the IC50 is the concentration at which inhibition is half-maximal. As for `N[C@@H](Cc1c[nH]cn1)C(=O)Cc1ccccc1Br`, the half-maximal inhibitory concentration (IC50) in experiment [1] worked out at 1000 nM.
In the case of `N[C@@H](Cc1c[nH]cn1)C(=O)Cc1ccc(Cl)cc1`, in experiment [1], the 50% inhibitory concentration (IC50) came out at 300 nM.
The term Ki denotes a measure of affinity in units of concentration, obtained from inhibition or displacement. Read a high Ki as lower affinity. In the case of `CC(=O)C(N)Cc1c[nH]cn1` (stereo unspecified), in experiment [2], half-maximal inhibition (IC50) required 10000 nM and the Ki worked out at 5000 nM.
The molecule `N[C@@H](Cc1c[nH]cn1)C(=O)CCc1ccccc1` yielded an IC50 in experiment [2] of 100000 nM.
The same measure, in the same setting: next, `CCC(=O)C(N)Cc1c[nH]cn1` (stereo unspecified): above 100000 nM.
As for `COc1ccc(CC(=O)[C@@H](N)Cc2c[nH]cn2)cc1`, the IC50 in experiment [1] was 1000 nM.
Still for that read-out and setting: next, `Nc1ccc(CC(=O)[C@@H](N)Cc2c[nH]cn2)cc1`: 500 nM.
Consider `N[C@@H](Cc1c[nH]cn1)C(=O)C(F)(F)C(F)(F)F`, for which, in experiment [2], it took 20000 nM to reach half-maximal inhibition (IC50).
Consider `Nc1cccc(CC(=O)[C@@H](N)Cc2c[nH]cn2)c1`, for which, in experiment [3], the “growth inhibition (GI)” value is “inactive”. In addition, the “growth inhibition (GI)” value in experiment [4] was “Active”. In experiment [1], this molecule gave an IC50 of 50 nM and a Ki of 7.4 nM.
`N[C@@H](Cc1c[nH]cn1)C(=O)Cc1cccc(Br)c1` gave an IC50 in experiment [1] of 100 nM.
`N[C@@H](Cc1c[nH]cn1)C(=O)CCCc1ccccc1` yielded an IC50 in experiment [2] of 80000 nM.
Consider `N[C@@H](Cc1c[nH]cn1)C(=O)Cc1ccc(-c2ccccc2)cc1`, for which the Ratio IC50 in experiment [5] was above 1000. In addition, in experiment [1], the IC50 came to 40 nM and the Ki amounted to 2.9 nM.
`Nc1cc(CC(=O)[C@@H](N)Cc2c[nH]cn2)ccc1Br`: the IC50 in experiment [1] stood at 8000 nM.
On the same count and under the same terms, next, `N[C@@H](Cc1c[nH]cn1)C(=O)Cc1ccc(Br)c(Br)c1`: 50 nM; `N[C@@H](Cc1c[nH]cn1)C(=O)Cc1cccc(O)c1`: 300 nM.
As to `N[C@@H](Cc1c[nH]cn1)C(=O)Cc1ccc(Br)cc1`, the “growth inhibition (GI)” value in experiment [4] was “Active”. The Ratio IC50 in experiment [5] was above 1000. Also, in experiment [1], the IC50 worked out at 40 nM and the Ki is 4.4 nM.
For the molecule `N[C@@H](Cc1c[nH]cn1)C(=O)Cc1ccccc1`, the IC50 in experiment [2] is 1000 nM. For the same molecule, the Ratio IC50 in experiment [6] turned out to be 10. Further, in experiment [1], the midpoint of inhibition, the IC50, lay at 100 nM and affinity was put at a Ki of 7.6 nM.
What is called Kd is the constant that tells how readily two partners part at equilibrium. Low readings indicate tighter binding, high ones weaker binding. Take `N[C@H](C=O)Cc1c[nH]cn1` [L-HISTIDINAL]: binding in experiment [7] was characterised by a dissociation constant (Kd) of 1.4 nM.
Regarding `N[C@@H](Cc1c[nH]cn1)C(=O)c1ccccc1`, in experiment [2], the IC50 is above 100000 nM.
